Entries after “also recorded” stand apart in the source; their conditions may differ.
How the values were obtained:
Assay type in all cases: in vivo
UUO mice = experiment: UUO mice: body weight, kidney weight, general condition; settings: n = 8
Protocol: UUO Surgery: On day 0 of the study, UUO surgery was performed on mice under pentobarbital sodium anesthesia. The mouse's hair was first shaved and then abdomen cut open to exteriorize the mouse's left ureter. The ureter was ligated 4-0 nylon sutures at two points. The mouse's peritoneum and skin were then closed with sutures, and the mouse transferred to a clean cage until recovered from the anesthesia. Sham operated mice had their left ureter exposed but not ligated. […]
Animals: Seven-week-old female C57BL/6 mice (i.e., animals) were obtained from Japan SLC, Inc. (Japan) and were housed and fed with a normal diet (CE-2; CLEA Japan, Japan) under controlled conditions. The animals were maintained in a specific-pathogen free (SPF) facility under controlled conditions of temperature (e.g., 23±2° C.), humidity (e.g., 45±10%), lighting (e.g., 12-hour artificial light and dark cycles; light from 8:00 to 20:00) and air exchange. A high pressure was maintained in the experimental room to prevent contamination of the facility. The animals were housed in TPX cages (CLEA Japan) with a maximum of 4 mice per cage. Sterilized Paper-Clean (Japan SLC) was used for bedding and replaced once a week. Sterilized solid normal diet was provided ad libitum, being placed in a metal lid on the top of the cage. Pure water was also provided ad libitum from a water bottle equipped with a rubber stopper and a sipper tube. Water bottles were replaced once a week, cleaned, and sterilized in an autoclave and reused. Mice were identified by ear punch and each cage was labeled with a specific identification code.
Animal Monitoring and Sacrifice: The viability, clinical signs and behavior for the mice were monitored daily. Individual body weight was measured daily before treatment during the treatment period. […] The animals were sacrificed by exsanguination through direct cardiac puncture under isoflurane anesthesia (Pfizer Inc.) at Day 14.

[1] = test system: UUO-induced renal interstitial fibrosis; experiment: UUO mice: kidney hydroxyproline content; settings: for Kidney hydroxyproline: n = 8
Protocol: Measurement of Kidney Biochemistry: To quantify kidney hydroxyproline content, frozen left kidney samples were processed by an alkaline-acid hydrolysis method as follows: kidney samples were dissolved in 2 normal (N) sodium hydroxide (NaOH) at 65° C. and autoclaved at 121° C. for 20 minutes. The lysed samples (400 μL) were acid-hydrolyzed with 400 μL of 6N hydrochloride acid (HCl) at 121° C. for 20 minutes, and neutralized with 400 μL of 4N NaOH containing 10 mg/mL of activated carbon. An AC buffer (e.g., 2.2M acetic acid/0.48M citric acid, 400 μL) was added to the samples, followed by centrifugation to collect the supernatant. A standard curve of hydroxyproline was constructed with serial dilutions of trans-4-hydroxy-L-proline (Sigma-Aldrich, USA) starting at 16 μg/mL. The prepared samples and standards (e.g., each 400 μL) were mixed with 400 μL chloramine T solution (Wako Pure Chemical Industries, Japan) and incubated for 25 minutes at room temperature. The samples were then mixed with Ehrlich's solution (e.g., 400 μL) and heated at 65° C. for 20 minutes to develop the color. After samples were cooled on ice and centrifuged to remove precipitates, the optical density of each supernatant was measured at 560 nanometers (nm). The concentrations of hydroxyproline were calculated from the hydroxyproline standard curve. Protein concentrations of kidney samples were determined using a bicinchoninic (BCA) protein assay kit (Thermo Fisher Scientific, USA) and used to normalize the calculated hydroxyproline values. Kidney hydroxyproline contents were expressed as microgram (μg) per mg protein.
Sample Collection: For serum samples, non-fasting blood was collected in serum separate tubes without anticoagulant through direct cardiac puncture and centrifuged at 3,500×g for 4 minutes at 4° C. The supernatant was collected and stored at −80° C. for shipping. For kidney samples, the left kidney was collected and cut into 2 pieces horizontally. […] Paraffin blocks were stored at room temperature for histological analyses. […] The anterior part of left kidney was snap frozen in liquid nitrogen and stored at −80° C. for gene expression assay. The posterior part of left kidney was snap frozen in liquid nitrogen and stored at −80° C. for kidney biochemistry.

TGF-β mRNA = experiment: UUO mice kidney quantitative RT-PCR, TGF-β
Protocol: (§1) Quantitative RT-PCR: Total ribonucleic acid (RNA) was extracted from kidney samples using RNAiso (Takara Bio, Japan) according to the manufacturer's instructions. One μg of RNA was reverse-transcribed using a reaction mixture containing […] (mM) of magnesium chloride (MgCl2) (F. Hoffmann-La Roche, Switzerland), 40 U RNase inhibitor (Toyobo, Japan), 0.5 mM dNTP (Promega, USA), 6.28 μM random hexamer (Promega), 5× first strand buffer (Promega), 10 mM dithiothreitol (Invitrogen, USA) and 200 U MMLV-RT (Invitrogen) in a final volume of 20 μL. The reaction was carried out for 1 hour at 37° C., followed by 5 minutes at 99° C. Real-time PCR was performed using real-time PCR DICE and TB Green™ Premix Ex Taq™ II (Takara Bio). To calculate the relative […] (mRNA) expression level, the expression of each gene (e.g., α-SMA, TIMP-1, TGF-β and Collagen Type 1) was normalized to that of reference gene 36B4 (gene symbol: Rplp0). Information regarding the PCR-primer sets and the plate layout are described in Tables 1 and 2.

[2] = test system: UUO-induced renal interstitial fibrosis; experiment: UUO mice: Sirius red staining of kidney sections, fibrosis area; settings: for Sirius red-positive area / Sirius red-positive area (%) _Median: UUO mice kidney, Day 14, n = 8; for Sirius red-positive area: mean ± SD; for fibrosis area compared with the Vehicle group: UUO mice
Protocol: Histopathological analysis: To visualize collagen deposition, kidney sections were stained using picro-Sirius red solution (Waldeck, Germany). For quantification of interstitial fibrosis area, bright field images in the corticomedullary region were captured using a digital camera (e.g., DFC295; Leica Microsystems, Germany) at 200-fold magnification, and the positive areas in 5 fields/section were measured using ImageJ software (National Institute of Health, USA).

Alpha-SMA mRNA = experiment: UUO mice kidney quantitative RT-PCR, Alpha-SMA
Protocol: as §1

TIMP-1 mRNA = experiment: UUO mice kidney quantitative RT-PCR, TIMP-1
Protocol: as §1

[3] = 5 mg/kg PO QD Day 0-13, Day 14, mean ± SD
[4] = 50 mg/kg PO QD Day 0-13, Day 14, mean ± SD
[5] = 250 mg/kg PO QD Day 0-13, Day 14, mean ± SD
[6] = 5 mg/kg PO QD Day 0-13, normalized to 36B4, Sham 1.00, mean ± SD
[7] = 50 mg/kg PO QD Day 0-13, normalized to 36B4, Sham 1.00, mean ± SD
[8] = 250 mg/kg PO QD Day 0-13, normalized to 36B4, Sham 1.00, mean ± SD
[9] = 50 mg/kg PO QD Day 0-13, Mann-Whitney U test, trend p<0.1, 50 mg/kg
[10] = 500 mg/kg PO QD Day 0-13, Day 14, mean ± SD
[11] = 500 mg/kg PO QD Day 0-13, normalized to 36B4, Sham 1.00, mean ± SD

Compound: CCCCCC(O)/C=C/C=C\C/C=C\CCCCCCC(=O)O (stereo not drawn) [DS109, 15-HETrE]
- Body Weight (UUO mice; [3]): 19.1 ± 0.9 g
- Left Kidney Weight (UUO mice; [3]): 533 ± 138 mg
- Left Kidney-to-Body Weight Ratio (UUO mice; [3]): 2.79 ± 0.65%
- Right Kidney Weight (UUO mice; [3]): 137 ± 7 mg
- Right Kidney-to-Body Weight Ratio (UUO mice; [3]): 0.71 ± 0.04%
- Body Weight (UUO mice; [4]): 18.6 ± 0.6 g
- Left Kidney Weight (UUO mice; [4]): 523 ± 91 mg
- Left Kidney-to-Body Weight Ratio (UUO mice; [4]): 2.83 ± 0.50%
- Right Kidney Weight (UUO mice; [4]): 135 ± 6 mg
- Right Kidney-to-Body Weight Ratio (UUO mice; [4]): 0.73 ± 0.05%
- Body Weight (UUO mice; [5]): 18.6 ± 0.7 g
- Left Kidney Weight (UUO mice; [5]): 425 ± 105 mg
- Left Kidney-to-Body Weight Ratio (UUO mice; [5]): 2.26 ± 0.53%
- Right Kidney Weight (UUO mice; [5]): 130 ± 13 mg
- Right Kidney-to-Body Weight Ratio (UUO mice; [5]): 0.70 ± 0.05%
- Kidney hydroxyproline [1, 3]: 9.94 ± 2.02 μg/mg total protein
- kidney hydroxyproline contents compared with the Vehicle group ([1]; 5 mg/kg PO QD Day 0-13, significance p<0.05): significant decreases
- Kidney hydroxyproline [1, 4]: 13.94 ± 6.44 μg/mg total protein
- kidney hydroxyproline contents compared with the Vehicle group ([1]; 50 mg/kg PO QD Day 0-13, significance p<0.05): no significant difference
- Kidney hydroxyproline [1, 5]: 8.30 ± 1.04 μg/mg total protein
- kidney hydroxyproline contents compared with the Vehicle group ([1]; 250 mg/kg PO QD Day 0-13, significance p<0.05): significant decreases
- TGF-β relative mRNA expression level (TGF-β mRNA; [6]): 4.29 ± 0.93
- TGF-β relative mRNA expression level (TGF-β mRNA; [7]): 6.01 ± 4.77
- TGF-β relative mRNA expression level (TGF-β mRNA; [8]): 5.48 ± 0.36
- Sirius red-positive area ([2]; 5 mg/kg PO QD Day 0-13): 4.23 ± 1.90%
- Sirius red-positive area (%) _Median ([2]; 5 mg/kg PO QD Day 0-13): 3.22 ± 1.47%
- Sirius red-positive area ([2]; 50 mg/kg PO QD Day 0-13): 3.58 ± 1.04%
- Sirius red-positive area (%) _Median ([2]; 50 mg/kg PO QD Day 0-13): 3.28 ± 1.41%
- Sirius red-positive area ([2]; 250 mg/kg PO QD Day 0-13): 4.71 ± 0.96%
- Sirius red-positive area (%) _Median ([2]; 250 mg/kg PO QD Day 0-13): 3.76 ± 0.81%
- fibrosis area compared with the Vehicle group ([2]; 5 mg/kg PO QD Day 0-13, Mann-Whitney U test, trend p<0.1, 5 mg/kg): tended to decrease; also recorded: reduction trend
- fibrosis area compared with the Vehicle group ([2]; 50 mg/kg PO QD Day 0-13, Bonferroni Multiple Comparison): tended to decrease
- fibrosis area compared with the Vehicle group [2, 9]: tended to decrease; also recorded: reduction trend
- fibrosis area compared with the Vehicle group ([2]; 250 mg/kg PO QD Day 0-13, Mann-Whitney U test, trend p<0.1, 250 mg/kg): tended to decrease; also recorded: reduction trend
- Alpha-SMA relative mRNA expression level (Alpha-SMA mRNA; [6]): 3.87 ± 0.82
- Alpha-SMA relative mRNA expression level (Alpha-SMA mRNA; [7]): 4.61 ± 3.15
- Alpha-SMA relative mRNA expression level (Alpha-SMA mRNA; [8]): 4.85 ± 1.22
- TIMP-1 relative mRNA expression level (TIMP-1 mRNA; [6]): 153.60 ± 37.12
- TIMP-1 relative mRNA expression level (TIMP-1 mRNA; [7]): 167.70 ± 122.60
- TIMP-1 relative mRNA expression level (TIMP-1 mRNA; [8]): 180.90 ± 23.12

Compound: 15-HEPE [DS102]
- Left Kidney Weight (UUO mice; [4]): 469 ± 60 mg
- Right Kidney Weight (UUO mice; [4]): 133 ± 10 mg
- Left Kidney Weight (UUO mice; [10]): 487 ± 108 mg
- Right Kidney Weight (UUO mice; [10]): 136 ± 6 mg
- Kidney hydroxyproline [1, 4]: 8.47 ± 2.08 μg/mg total protein
- kidney hydroxyproline contents compared with the Vehicle group ([1]; 50 mg/kg PO QD Day 0-13, significance p<0.05, 50 mg/kg): significant decrease
- Kidney hydroxyproline [1, 10]: 8.59 ± 1.99 μg/mg total protein
- kidney hydroxyproline contents compared with the Vehicle group ([1]; 500 mg/kg PO QD Day 0-13, significance p<0.05): significant decreases
- TGF-β relative mRNA expression level (TGF-β mRNA; [7]): 4.31 ± 0.69
- TGF-β relative mRNA expression level (TGF-β mRNA; [11]): 5.37 ± 0.76
- Sirius red-positive area ([2]; 50 mg/kg PO QD Day 0-13): 5.01 ± 3.11%
- Sirius red-positive area (%) _Median ([2]; 50 mg/kg PO QD Day 0-13): 4.19 ± 3.33%
- Sirius red-positive area ([2]; 500 mg/kg PO QD Day 0-13): 4.01 ± 1.92%
- Sirius red-positive area (%) _Median ([2]; 500 mg/kg PO QD Day 0-13): 3.08 ± 1.16%
- fibrosis area compared with the Vehicle group [2, 9]: tended to decrease; also recorded: reduction trend
- fibrosis area compared with the Vehicle group ([2]; 500 mg/kg PO QD Day 0-13, Mann-Whitney U test, trend p<0.1, 500 mg/kg): tended to decrease; also recorded: reduction trend
- Alpha-SMA relative mRNA expression level (Alpha-SMA mRNA; [7]): 3.74 ± 0.81
- Alpha-SMA relative mRNA expression level (Alpha-SMA mRNA; [11]): 5.54 ± 1.54
- TIMP-1 relative mRNA expression level (TIMP-1 mRNA; [7]): 138.30 ± 30.39
- TIMP-1 relative mRNA expression level (TIMP-1 mRNA; [11]): 124.80 ± 28.60

From patent publication US12076304B2, “Compositions comprising 15-HEPE and methods of treating or preventing hematologic disorders, and/or related diseases” (priority 2020, dated 2024)
